Measurements reported in patent US20230117034A1, “PYRAZOLOTRIAZINES” (Bayer Aktiengesellschaft, priority 2019, published 2023).

Experiments:
[1] = target: T1, CDK12 (nuclear staining in CAL-120 cells) (Homo sapiens, UniProt Q9NYV4); experiment: CDK12 nuclear protein level: immunofluorescence/high content analysis (CAL-120); assay type: cell-based; details: for DC50: CAL-120 cells, 24 h, immunofluorescence, 50% reduction of nuclear CDK12 staining intensity, median, read-out: CDK12 degradation IF, DC50- [mol/l] (median); for (IC50 CDK12 high ATP) to (Degradation DC50 CDK12) ratio: ratio of IC50 CDK12 high ATP kinase assay to DC50 CDK12 degradation (IF, CAL-120)
T1 construct: endogenous in cells; host or cells: CAL-120 human breast cancer cells (DSMZ ACC 459)
T1 sequence (Q9NYV4 whole entry): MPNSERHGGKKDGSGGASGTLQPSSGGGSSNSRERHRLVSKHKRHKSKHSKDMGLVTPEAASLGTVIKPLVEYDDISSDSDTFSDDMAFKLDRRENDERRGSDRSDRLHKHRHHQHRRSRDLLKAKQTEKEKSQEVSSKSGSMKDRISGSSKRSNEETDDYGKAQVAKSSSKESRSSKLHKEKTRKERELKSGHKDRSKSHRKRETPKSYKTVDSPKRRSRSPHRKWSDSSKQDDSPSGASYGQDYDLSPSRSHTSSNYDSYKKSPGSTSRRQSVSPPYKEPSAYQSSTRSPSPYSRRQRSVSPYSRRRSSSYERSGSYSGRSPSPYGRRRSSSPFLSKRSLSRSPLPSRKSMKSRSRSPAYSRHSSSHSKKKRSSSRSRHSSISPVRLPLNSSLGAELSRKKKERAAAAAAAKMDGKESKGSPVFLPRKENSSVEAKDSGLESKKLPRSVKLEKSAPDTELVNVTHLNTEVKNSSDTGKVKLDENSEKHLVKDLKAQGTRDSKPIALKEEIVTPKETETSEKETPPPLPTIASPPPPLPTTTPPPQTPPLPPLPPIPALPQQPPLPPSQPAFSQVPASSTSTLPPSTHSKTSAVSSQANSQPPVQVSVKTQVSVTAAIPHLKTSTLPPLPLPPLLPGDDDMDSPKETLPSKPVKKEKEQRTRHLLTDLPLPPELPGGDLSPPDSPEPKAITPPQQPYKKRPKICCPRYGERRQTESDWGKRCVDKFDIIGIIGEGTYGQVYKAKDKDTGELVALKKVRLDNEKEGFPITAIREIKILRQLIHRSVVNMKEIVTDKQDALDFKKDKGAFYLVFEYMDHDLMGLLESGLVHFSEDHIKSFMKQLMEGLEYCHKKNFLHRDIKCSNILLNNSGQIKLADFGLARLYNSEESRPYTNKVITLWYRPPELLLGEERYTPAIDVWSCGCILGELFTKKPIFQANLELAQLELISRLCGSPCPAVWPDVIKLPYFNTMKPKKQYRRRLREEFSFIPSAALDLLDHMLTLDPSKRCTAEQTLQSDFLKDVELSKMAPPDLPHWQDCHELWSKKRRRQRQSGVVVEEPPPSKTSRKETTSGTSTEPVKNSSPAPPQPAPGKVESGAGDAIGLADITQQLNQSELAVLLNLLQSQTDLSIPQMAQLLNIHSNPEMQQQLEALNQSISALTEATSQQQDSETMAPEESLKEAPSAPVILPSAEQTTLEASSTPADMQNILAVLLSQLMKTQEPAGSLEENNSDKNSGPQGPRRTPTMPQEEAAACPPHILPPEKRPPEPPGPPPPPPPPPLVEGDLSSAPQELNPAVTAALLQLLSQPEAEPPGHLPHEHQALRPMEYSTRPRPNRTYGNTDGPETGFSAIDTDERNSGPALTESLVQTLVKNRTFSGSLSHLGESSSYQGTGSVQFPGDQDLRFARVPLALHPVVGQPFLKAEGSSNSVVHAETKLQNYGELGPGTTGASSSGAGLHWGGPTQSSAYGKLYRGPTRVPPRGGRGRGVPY
T1 sequence (O75909 whole entry partner): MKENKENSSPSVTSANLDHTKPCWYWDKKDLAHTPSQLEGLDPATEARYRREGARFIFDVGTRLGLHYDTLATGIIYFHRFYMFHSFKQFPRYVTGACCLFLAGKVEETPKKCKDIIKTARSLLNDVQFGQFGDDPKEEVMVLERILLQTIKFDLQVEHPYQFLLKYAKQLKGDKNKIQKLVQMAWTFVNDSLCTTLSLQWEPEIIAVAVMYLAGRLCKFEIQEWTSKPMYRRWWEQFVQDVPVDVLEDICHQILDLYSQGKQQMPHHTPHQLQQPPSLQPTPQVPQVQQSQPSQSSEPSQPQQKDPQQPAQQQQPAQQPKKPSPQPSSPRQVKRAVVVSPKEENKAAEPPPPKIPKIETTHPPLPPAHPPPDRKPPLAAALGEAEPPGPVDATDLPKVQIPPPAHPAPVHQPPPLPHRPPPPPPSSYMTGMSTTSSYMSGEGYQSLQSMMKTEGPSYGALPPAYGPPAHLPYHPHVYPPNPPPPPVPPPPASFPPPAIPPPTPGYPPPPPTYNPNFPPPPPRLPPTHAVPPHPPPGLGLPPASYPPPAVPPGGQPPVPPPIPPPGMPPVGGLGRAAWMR
Procedure, shortened: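 CAL-120 cells were treated with compound for 24 h at 37 °C, fixed with PFA and immunostained for CDK12. Nuclear CDK12 intensity was quantified by automated image analysis and normalized to DMSO and control. DC50 is the concentration giving 50% reduction of nuclear staining.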

CDK9/CycT1 = target: T2, CDK9/CycT1 (Homo sapiens, UniProt P50750); experiment: CDK9/CycT1 high ATP kinase assay (TR-FRET, 2 mM ATP); assay type: biochemical; details: 2 mM ATP (high ATP); median; read-out: CDK9/CyclinT1, 2 mM ATP (high ATP), IC50 (median)
T2 construct: Recombinant full-length His-tagged human CDK9 and CycT1; purchased Life Technologies PV4131; host or cells: insect cells
T2 sequence (P50750 whole entry): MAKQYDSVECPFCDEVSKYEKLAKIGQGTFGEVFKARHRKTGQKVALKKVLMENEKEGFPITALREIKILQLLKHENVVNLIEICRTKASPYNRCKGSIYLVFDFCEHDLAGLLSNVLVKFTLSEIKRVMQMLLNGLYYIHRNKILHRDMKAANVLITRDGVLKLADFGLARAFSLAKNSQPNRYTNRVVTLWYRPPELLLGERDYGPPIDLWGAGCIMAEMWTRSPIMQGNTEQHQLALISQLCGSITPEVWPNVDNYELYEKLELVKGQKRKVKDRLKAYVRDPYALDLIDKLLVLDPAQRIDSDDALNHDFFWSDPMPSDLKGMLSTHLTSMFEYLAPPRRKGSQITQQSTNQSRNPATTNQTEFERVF
T2 sequence (O60563 whole entry partner): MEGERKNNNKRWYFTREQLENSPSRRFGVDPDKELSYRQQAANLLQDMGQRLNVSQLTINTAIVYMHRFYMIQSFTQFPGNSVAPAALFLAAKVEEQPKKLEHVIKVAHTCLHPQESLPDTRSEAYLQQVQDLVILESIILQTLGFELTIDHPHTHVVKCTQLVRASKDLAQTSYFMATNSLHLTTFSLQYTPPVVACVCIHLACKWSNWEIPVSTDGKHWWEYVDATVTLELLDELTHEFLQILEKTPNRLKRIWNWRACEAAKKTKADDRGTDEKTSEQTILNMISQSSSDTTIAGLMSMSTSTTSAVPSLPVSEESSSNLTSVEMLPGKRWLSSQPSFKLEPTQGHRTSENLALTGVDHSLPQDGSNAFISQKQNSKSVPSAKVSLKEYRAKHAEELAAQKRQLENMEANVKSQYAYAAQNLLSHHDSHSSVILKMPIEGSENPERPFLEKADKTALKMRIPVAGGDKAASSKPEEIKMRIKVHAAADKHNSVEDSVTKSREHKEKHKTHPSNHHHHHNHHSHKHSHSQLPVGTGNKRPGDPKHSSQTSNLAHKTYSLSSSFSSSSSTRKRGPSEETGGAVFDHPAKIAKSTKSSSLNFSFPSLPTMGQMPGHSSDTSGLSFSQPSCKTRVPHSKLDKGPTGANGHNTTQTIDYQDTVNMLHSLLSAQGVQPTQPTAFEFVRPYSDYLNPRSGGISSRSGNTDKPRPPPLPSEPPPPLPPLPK
Procedure, shortened: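 Full-length His-tagged human CDK9/CycT1 (insect cell, ~0.5 μg/mL) preincubated 15 min at 22 °C with compound in Tris pH 8.0, MgCl2, DTT buffer before reaction with biotinylated peptide substrate at high ATP (2 mM).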

| SMILES | DC50 [1] [nM] | (IC50 CDK12 high ATP) to (Degradation DC50 CDK12) ratio [1] | IC50 (CDK9/CycT1) [nM] |
| --- | --- | --- | --- |
| Brc1cnn2c(NCc3nc4ccccc4[nH]3)nc(N3CCNC4(CC4)C3)nc12 [Example 176, N-[(1H-benzimidazol-2-yl)methyl]-8-bromo-2-(4,7-diazaspiro[2.5]octan-7-yl)pyrazolo[1,5-a][1,3,5]triazin-4-amine] | 1.53 | 1525 | > 20000 |
| CC(C)(O)CNc1nc(NCc2nc3ccccc3[nH]2)n2ncc(Br)c2n1 [Example 229, 1-[(4-{[(1H-benzimidazol-2-yl)methyl]amino}-8-bromopyrazolo[1,5-a][1,3,5]triazin-2-yl)amino]-2-methylpropan-2-ol] | 6.38 | 862 | > 20000 |
| Brc1cnn2c(NCc3nc4ccccc4[nH]3)nc(N3CCC4(CCCN4)C3)nc12 (stereo not shown) [Example 215, N-(1H-benzimidazol-2-ylmethyl)-8-bromo-2-(1,7-diazaspiro[4.4]nonan-7-yl)pyrazolo[1,5-a][1,3,5]triazin-4-amine] | 7.88 | >2537 | > 20000 |
| CC1CN(c2nc(NCc3nc4ccccc4[nH]3)n3ncc(C(C)C)c3n2)CCO1 (racemic) [Example 11, (rac)-N-[(1H-benzimidazol-2-yl)methyl]-2-[2-methylmorpholin-4-yl]-8-(propan-2-yl)pyrazolo[1,5-a][1,3,5]triazin-4-amine] | 12.6 | 251 | > 20000 |
| CN1CC[C@@H]2CN(c3nc(NCc4nc5ccccc5[nH]4)n4ncc(Br)c4n3)C[C@@H]21 [Example 217, N-[(1H-benzimidazol-2-yl)methyl]-8-bromo-2-[(3aR,6aR)-1-methylhexahydropyrrolo[3,4-b]pyrrol-5 (1H)-yl]pyrazolo[1,5-a][1,3,5]triazin-4-amine] | 8.64 | >2315 | > 20000 |
| COC(C)(C)CNc1nc(NCc2nc3ccccc3[nH]2)n2ncc(Br)c2n1 [Example 236, N4-(1H-benzimidazol-2-ylmethyl)-8-bromo-N2-(2-methoxy-2-methyl-propyl)pyrazolo[1,5-a][1,3,5]triazine-2,4-diamine] | 7.18 | – | > 20000 |
| Brc1cnn2c(NCc3nc4ccccc4[nH]3)nc(N3C[C@H]4CCCN[C@H]4C3)nc12 [Example 199, N-[(1H-benzimidazol-2-yl)methyl]-8-bromo-2-[(4aR, 7aR)-octahydro-6H-pyrrolo[3,4-b]pyridin-6-yl]pyrazolo[1,5-a][1,3,5]triazin-4-amine] | 5.55 | 2661 | > 20000 |
| CN(CCN1CCCC1)c1nc(NCc2nc3ccccc3[nH]2)n2ncc(Br)c2n1 [Example 239, N4-(1H-benzimidazol-2-ylmethyl)-8-bromo-N2-methyl-N2-(2-pyrrolidin-1-ylethyl)pyrazolo[1,5-a][1,3,5]triazine-2,4-diamine] | 347 | >58 | > 20000 |
| CN1CC[C@H]2CN(c3nc(NCc4nc5ccccc5[nH]4)n4ncc(Br)c4n3)C[C@H]21 [Example 179, N-[(1H-benzimidazol-2-yl)methyl]-8-bromo-2-[(3aS,6aS)-1-methylhexahydropyrrolo[3,4-b]pyrrol-5 (1H)-yl]pyrazolo[1,5-a][1,3,5]triazin-4-amine] | 4.59 | >4361 | > 20000 |
| Brc1cnn2c(NCc3nc4ccccc4[nH]3)nc(N3CC4CCC(C3)N4)nc12 [Example 232, N-(1H-benzimidazol-2-ylmethyl)-8-bromo-2-(3,8-diazabicyclo[3.2.1]octan-3-yl)pyrazolo[1,5-a][1,3,5]triazin-4-amine] | > 3.6 | – | > 20000 |
| CN1CCCC2CN(c3nc(NCc4nc5ccccc5[nH]4)n4ncc(Br)c4n3)CC21 (stereo not shown) [Example 231, N-[(1H-benzimidazol-2-yl)methyl]-8-bromo-2-(1-methyloctahydro-6H-pyrrolo[3,4-b]pyridin-6-yl)pyrazolo[1,5-a][1,3,5]triazin-4-amine] | 33.9 | >590 | > 20000 |
| COc1cccc2[nH]c(CNc3nc(N4C[C@H]5C[C@@H]4CO5)nc4c(C5CC5)cnn34)nc12 [Example 198, 8-cyclopropyl-N-[(4-methoxy-1H-benzimidazol-2-yl)methyl]-2-[(1R,4R)-2-oxa-5-azabicyclo[2.2.1]heptan-5-yl]pyrazolo[1,5-a][1,3,5]triazin-4-amine] | 34.9 | 214 | > 20000 |
| COc1cccc2[nH]c(CNc3nc(N4CCNCC4)nc4c(C5CC5)cnn34)nc12 [Example 211, 8-cyclopropyl-N-[(4-methoxy-1H-benzimidazol-2-yl)methyl]-2-(piperazin-1-yl)pyrazolo[1,5-a][1,3,5]triazin-4-amine] | 2.32 | 1184 | > 20000 |
| Cc1ccc2[nH]c(CNc3nc(N4C[C@H]5C[C@@H]4CO5)nc4c(C5CC5)cnn34)nc2c1 [Example 196, 8-cyclopropyl-N-[(5-methyl-1H-benzimidazol-2-yl)methyl]-2-[(1R,4R)-2-oxa-5-azabicyclo[2.2.1]heptan-5-yl]pyrazolo[1,5-a][1,3,5]triazin-4-amine] | 1.9 | 8068 | > 20000 |
| CN1CCN(c2nc(NCc3nc4ccccc4[nH]3)n3ncc(Br)c3n2)CC1 [Example 18, N-[(1H-benzimidazol-2-yl)methyl]-8-bromo-2-(4-methylpiperazin-1-yl)pyrazolo[1,5-a][1,3,5]triazin-4-amine] | 2.98 | >5268 | > 20000 |
| CN(C)[C@H]1CCN(c2nc(NCc3nc4ccccc4[nH]3)n3ncc(Br)c3n2)C1 [Example 177, N-[(1H-benzimidazol-2-yl)methyl]-8-bromo-2-[(3S)-3-(dimethylamino)pyrrolidin-1-yl]pyrazolo[1,5-a][1,3,5]triazin-4-amine] | 35.7 | >561 | > 20000 |
| CN1CCN(c2nc(NCc3nc4ccccc4[nH]3)n3ncc(-c4ccncc4)c3n2)CC1 [Example 242, N-[(1H-benzimidazol-2-yl)methyl]-2-(4-methylpiperazin-1-yl)-8-(pyridin-4-yl)pyrazolo[1,5-a][1,3,5]triazin-4-amine] | 107 | >188 | > 20000 |
| COc1cccc2[nH]c(CNc3nc(N4C[C@@H](C)N[C@@H](C)C4)nc4c(C5CC5)cnn34)nc12 [Example 212, 8-cyclopropyl-2-[(3R,5S)-3,5-dimethylpiperazin-1-yl]-N-[(4-methoxy-1H-benzimidazol-2-yl)methyl]pyrazolo[1,5-a][1,3,5]triazin-4-amine] | 1.09 | 3798 | > 20000 |
| COc1cccc2[nH]c(CNc3nc(N4CCN(C)CC4)nc4c(C5CC5)cnn34)nc12 [Example 197, 8-cyclopropyl-N-[(4-methoxy-1H-benzimidazol-2-yl)methyl]-2-(4-methylpiperazin-1-yl)pyrazolo[1,5-a][1,3,5]triazin-4-amine] | 1.4 | 6827 | > 20000 |
| Cc1ccc2[nH]c(CNc3nc(N4C[C@@H](C)N[C@@H](C)C4)nc4c(C5CC5)cnn34)nc2c1 [Example 194, 8-cyclopropyl-2-[(3R,5S)-3,5-dimethylpiperazin-1-yl]-N-[(5-methyl-1H-benzimidazol-2-yl)methyl]pyrazolo[1,5-a][1,3,5]triazin-4-amine] | 0.23 | 16078 | > 20000 |
| Fc1cccc2[nH]c(CNc3nc(N4CCNCC4)nc4c(C5CC5)cnn34)nc12 [Example 182, 8-cyclopropyl-N-[(4-fluoro-1H-benzimidazol-2-yl)methyl]-2-(piperazin-1-yl)pyrazolo[1,5-a][1,3,5]triazin-4-amine] | 0.727 | 2813 | > 20000 |
| CN1C[C@H]2C[C@@H]1CN2c1nc(NCc2nc3ccccc3[nH]2)n2ncc(Br)c2n1 [Example 218, N-[(1H-benzimidazol-2-yl)methyl]-8-bromo-2-[(1R,4R)-5-methyl-2,5-diazabicyclo[2.2.1]heptan-2-yl]pyrazolo[1,5-a][1,3,5]triazin-4-amine] | 10.5 | >1900 | > 20000 |
| Fc1ccc2[nH]c(CNc3nc(N4CCNCC4)nc4c(C5CC5)cnn34)nc2c1F [Example 174, 8-cyclopropyl-N-[(4,5-difluoro-1H-benzimidazol-2-yl)methyl]-2-(piperazin-1-yl)pyrazolo[1,5-a][1,3,5]triazin-4-amine] | 0.645 | 1851 | > 20000 |
| C[C@@H]1CN(c2nc(NCc3nc4ccccc4[nH]3)n3ncc(Br)c3n2)CCN1 [Example 168, N-[(1H-benzimidazol-2-yl)methyl]-8-bromo-2-[(3R)-3-methylpiperazin-1-yl]pyrazolo[1,5-a][1,3,5]triazin-4-amine] | 0.532 | 10872 | > 20000 |
